Test system: Kibdelosporangium philippinensis (cultures A80407 and A80407.4)
Experiment: Resistance to antibiotics of the producing cultures, antibiotic sensitivity discs on seeded ISP No. 2 agar
Conditions: both cultures

`CN(C)C1C(=O)C(C(N)=O)=C(O)C2(O)C(=O)C3=C(O)c4c(O)cccc4C(C)(O)C3CC12` (stereo not drawn) [tetracycline] was tested, and the Resistance to antibiotics (10 μg) was “sensitive”.

polymixin B was tested, and the Resistance to antibiotics (300 units) was “resistant”.

For oleandomycin, the Resistance to antibiotics (15 μg) was “resistant”.

With `C1N2CN3CN1CN(C2)C3` [mandelamine] the Resistance to antibiotics (3 μg) was “sensitive”.

In the case of `O=C(N[C@H](CO)[C@H](O)c1ccc([N+](=O)[O-])cc1)C(Cl)Cl` [chloramphenicol], the Resistance to antibiotics (30 μg) is reported as “sensitive”.

With `CCC[C@@H]1C[C@@H](C(=O)N[C@@H]([C@H]2O[C@H](SC)[C@H](O)[C@@H](O)[C@H]2O)[C@@H](C)O)N(C)C1` [lincomycin] the Resistance to antibiotics (2 μg) was “resistant”.

`CC[C@H]1OC(=O)[C@H](C)[C@@H](O[C@H]2C[C@@](C)(OC)[C@@H](O)[C@H](C)O2)[C@H](C)[C@@H](O[C@@H]2O[C@H](C)C[C@H](N(C)C)[C@H]2O)[C@](C)(O)C[C@@H](C)C(=O)[C@H](C)[C@@H](O)[C@]1(C)O` [erythromycin] was tested, and the Resistance to antibiotics (15 μg) was “sensitive”.

For `NC[C@H]1O[C@H](O[C@H]2[C@H](O)[C@@H](O[C@H]3O[C@H](CO)[C@@H](O)[C@H](N)[C@H]3O)[C@H](N)C[C@@H]2N)[C@H](N)C[C@@H]1O` [tobramycin], the Resistance to antibiotics (10 μg) was “resistant”.

`CO[C@@H]1[C@@H](OC(N)=O)[C@@H](O)[C@H](Oc2ccc3c(O)c(NC(=O)c4ccc(O)c(CC=C(C)C)c4)c(=O)oc3c2C)OC1(C)C` [novobiocin] was tested, and the Resistance to antibiotics (30 μg) was “sensitive”.

In the case of `COc1cc(Cc2cnc(N)nc2N)cc(OC)c1OC` [trimethoprim], the Resistance to antibiotics (5 μg) is reported as “resistant”.

For `CN[C@H](CC(C)C)C(=O)N[C@H]1C(=O)N[C@@H](CC(N)=O)C(=O)N[C@H]2C(=O)N[C@H]3C(=O)N[C@H](C(=O)N[C@H](C(=O)O)c4cc(O)cc(O)c4-c4cc3ccc4O)[C@H](O)c3ccc(c(Cl)c3)Oc3cc2cc(c3O[C@@H]2O[C@H](CO)[C@@H](O)[C@H](O)[C@H]2O[C@H]2C[C@](C)(N)[C@H](O)[C@H](C)O2)Oc2ccc(cc2Cl)[C@H]1O` [vancomycin], the Resistance to antibiotics (30 μg) was “resistant”.

In the case of `NC[C@@H]1O[C@H](O[C@H]2[C@@H](O)[C@H](O[C@@H]3[C@@H](O)[C@H](N)C[C@H](N)[C@H]3O[C@H]3O[C@H](CN)[C@@H](O)[C@H](O)[C@H]3N)O[C@@H]2CO)[C@H](N)[C@@H](O)[C@@H]1O` [neomycin], the Resistance to antibiotics (30 μg) is reported as “sensitive”.

For `CC1(C)S[C@@H]2[C@H](NC(=O)Cc3ccccc3)C(=O)N2[C@H]1C(=O)O` [penicillin G], the Resistance to antibiotics (10 units) was “resistant”.

gentamycin was tested, and the Resistance to antibiotics (10 μg) was “sensitive”.

In the case of `CCn1cc(C(=O)O)c(=O)c2ccc(C)nc21` [nalidixic acid], the Resistance to antibiotics (30 μg) is reported as “resistant”.

With `Nc1ccc(S(=O)(=O)Nc2ncccn2)cc1` [sulfadiazine] the Resistance to antibiotics (300 units) was “resistant”.

In the case of `CO[C@H]1/C=C/O[C@@]2(C)Oc3c(C)c(O)c4c(O)c(c(/C=N/N5CCN(C)CC5)c(O)c4c3C2=O)NC(=O)/C(C)=C\C=C\[C@H](C)[C@H](O)[C@@H](C)[C@@H](O)[C@@H](C)[C@H](OC(C)=O)[C@@H]1C` [rifampin], the Resistance to antibiotics (5 μg) is reported as “sensitive”.

With `CC(=O)OCC1=C(C(=O)O)N2C(=O)[C@@H](NC(=O)Cc3cccs3)[C@H]2SC1` [cephalothin] the Resistance to antibiotics (30 μg) was “resistant”.
